Experimental data: publication PMC6980506, “Comparative pharmacokinetics and pharmacodynamics of the advanced Retinol-Binding Protein 4 antagonist in dog and cynomolgus monkey” (PLoS ONE, 2020)
Like-named read-outs stand apart in the source and are kept apart here.

Assay: Single dose pharmacokinetic study in beagle dog
Assay type: in vivo
Conditions: male, beagle, plasma; for concentration at 8 h / concentration at 12 h / concentration at 24 h / concentration at 36 h / concentration at 48 h / concentration at 0.25 h / concentration at 0.5 h / concentration at 1 h / concentration at 2 h / concentration at 4 h / concentration at 10 h: male beagle dog; for half-life: read-out: T1/2, apparent terminal half-life (converted)
Procedure: Pharmacokinetic studies were conducted in male beagle dogs and male cynomolgus monkeys at SRI International, Menlo Park, CA. General procedures for animal care and housing were in accordance with the National Research Council (NRC) Guide for the Care and Use of Laboratory Animals (1996) and the Animal Welfare Standards incorporated in 9 CFR Part 3, 1991 and complied with guidelines set forth by the ARVO Animal Statement for the Use of Animals in Ophthalmic and Vision Research. During the course of the PK experiments, cynomolgus monkeys were individually housed in stainless steel primary enclosures in an AAALAC-accredited facility. Animals were fed a commercial monkey chow, and supplemental food was provided (fresh fruits, vegetables, seeds, and nuts). Reverse osmosis-purified drinking water was available at all times. Cynomolgus monkeys were maintained on a 12:12 hour light:dark cycle at the 64–84°F temperature and 30–70% humidity. Monkeys had access to enrichment opportunities (grooming devices, foraging devices, activity panels and mirrors) and were provided auditory stimuli and human interaction enrichment throughout the study. Blood samples were collected by venipuncture of a peripheral vein. Animals were acclimated to the squeeze back mechanism in their home cage by repeated, short periods of restraint during general husbandry procedures for at least 2 weeks prior to dosing. Animal were not removed from their cages for collection, and no anesthesia/analgesic agents were used for blood collection. […] For PK experiments, beagle dogs were individually housed in enclosed run (≥ 4 ft x 6 ft). Dogs were exposed to their daily ration of food, Harlan Teklad 2025C Certified Global 25% Protein Dog Diet. Water was provided from the public water supply (municipal tap water) ad libitum. Dogs were maintained on a 12:12 hour light:dark cycle at the 72–73°F temperature and 40–71% humidity. Every effort was made to minimize, if not eliminate, pain and suffering in all animals in this study. No restraining devices were used in blood collecting procedures. Dogs were gentle hand-held to restrain by trained technicians with the dogs foreleg extended for sample collection of blood from cephalic vein. Animals were awake during blood sample collection with no anesthesia/analgesic agents used, and positive reinforcement by the technician was provided following collection. […] All dogs were released back to the colony after the study was completed. Male beagle dogs and male cynomolgus monkey received a single i.v. dose of a test compound at 0.5 mg kg^−1 (dog) and 1 mg kg^−1 (monkey) or a single p.o. dose of a test compound of at 2 mg kg^−1 (dog) and 5 mg kg^−1 (monkey). The number of animals that was used in PK experiments is 3 per study group. Intravenous administration vehicle was 3% DMA/45% PEG300/12% ethanol/40% sterile water; p.o. vehicle was 2% Tween 80 in 0.9% saline. […] Blood samples were processed to plasma. Following protein extraction with acetonitrile, compound concentrations in plasma were measured by LC-MS/MS. The plasma drug level data were analyzed using WinNonlin software package; Model 201 (for i.v. bolus administration);was used for the analysis of i.v. data, and Model 200 (for extravascular administration) was used for the analysis of the p.o. data. Aliquots of pre-dose plasma samples, as well as aliquots of plasma PK samples, were used for the analysis of the plasmabiomarker, RBP4.

[1] = dog, iv, 0.5 mg/kg, iv 0.5 mg/kg, read-out: Plasma level, Mean
[2] = dog, iv, 0.5 mg/kg, iv 0.5 mg/kg, read-out: Plasma level, Individual animals
[3] = dog, po, 2 mg/kg, po 2 mg/kg, read-out: Plasma level, Individual animals
[4] = dog, po, 2 mg/kg, po 2 mg/kg, read-out: Plasma level, Mean
[5] = iv, Dog, 0.5 mg kg^−1 i.v., mean ± SD, n=3
[6] = po, Dog, 2.0 mg kg^−1 p.o., mean ± SD, n=3

Cc1cc(C(=O)O)nc(N2C[C@H]3C[C@@H](c4ccccc4C(F)(F)F)C[C@H]3C2)n1 [BPN-14136]
concentration at 8 h [1]: 209 ng/mL | concentration at 12 h [1]: 107 ng/mL | concentration at 24 h [2]: 169 ng/mL | concentration at 24 h [1]: 175 ng/mL | concentration at 36 h [2]: 33.3 ng/mL | concentration at 36 h [1]: 41 ng/mL | concentration at 48 h [2]: 92.8 ng/mL | concentration at 48 h [1]: 95.9 ng/mL | bioavailability (dog, oral, 2 mg kg^−1, Dog, 2.0 mg kg^−1 p.o. vs 0.5 mg kg^−1 i.v., read-out: %F, bioavailability): ~84% | concentration at 0.25 h [3]: 7100 ng/mL | concentration at 0.25 h [4]: 7090 ng/mL | concentration at 0.5 h [3]: 6340 ng/mL | concentration at 0.5 h [4]: 6720 ng/mL | concentration at 1 h [3]: 6630 ng/mL | concentration at 1 h [4]: 5940 ng/mL | concentration at 2 h [3]: 3600 ng/mL | concentration at 2 h [4]: 4120 ng/mL | concentration at 4 h [3]: 1790 ng/mL | concentration at 4 h [4]: 2140 ng/mL | concentration at 8 h [3]: 855 ng/mL | concentration at 8 h [4]: 904 ng/mL | concentration at 10 h [3]: 407 ng/mL | concentration at 10 h [4]: 559 ng/mL | concentration at 12 h [3]: 453 ng/mL | concentration at 12 h [4]: 532 ng/mL | concentration at 24 h [3]: 330 ng/mL | concentration at 24 h [4]: 383 ng/mL | concentration at 36 h [3]: 82.4 ng/mL | concentration at 36 h [4]: 94.2 ng/mL | concentration at 48 h [4]: 126 ng/mL | AUC(0-inf) [5]: 10700 ± 500 ng·h/mL | AUC(0-t) [5]: 10300 ± 500 ng·h/mL | clearance (iv, Dog, 0.5 mg kg^−1 i.v., mean ± SD, n=3, read-out: CL, total body clearance (converted)): 0.783 mL/min/kg | Cmax (iv, Dog, 0.5 mg kg^−1 i.v., mean ± SD, n=3, read-out: Cmax, maximum observed concentration at first time point): 2700 ± 100 ng/mL | half-life [5]: 2.6 ± 0.2 h | Vd (iv, Dog, 0.5 mg kg^−1 i.v., mean ± SD, n=3, read-out: Vss, volume of distribution at steady state): 0.622 ± 0.0034 L/kg | AUC(0-inf) [6]: 35900 ± 4400 ng·h/mL | AUC(0-t) [6]: 35400 ± 400 ng·h/mL | Tmax [6]: 0.33 ± 0.14 h | Cmax (po, Dog, 2.0 mg kg^−1 p.o., mean ± SD, n=3, read-out: Cmax): 7500 ± 200 ng/mL | half-life [6]: 2.9 ± 0.4 h
